Test results as given in patent US20230285397A1, “EGFR INHIBITOR” (TAIHO PHARMACEUTICAL CO., LTD., priority 2020, published 2023).

Legend:
[1] = Evaluation of oral absorbability; type: in vivo; details: BALB/cA mice, 50 mg/kg/day
Method: The compound of the present invention was suspended or dissolved in 0.5% HPMC aqueous solution and 0.1 N hydrochloric acid, and the obtained suspension or solution was orally administered to BALB/cA mice (CLEA Japan, Inc.) at a dose of 50 mg/kg/day. At 0.5, 1, 2, 4 and 6 hours after completion of the oral administration, blood was collected from the facial vein over time, so as to obtain plasma. The concentration of the compound in the obtained plasma was measured by LC-MS/MS, and the oral absorbability of the present compound was evaluated.

[2] = Evaluation of brain penetration properties; type: in vivo; details: BALB/cA mice, oral, 50 mg/kg/day, 0.5 hours
Method: The compound of the present invention was suspended or dissolved in 0.5% HPMC aqueous solution and 0.1 N hydrochloric acid, and the obtained suspension or solution was orally administered to BALB/cA mice (CLEA Japan, Inc.) at a dose of 50 mg/kg/day. At 0.5 hours after completion of the oral administration, blood was collected from the facial vein, and whole brain was then excised, so as to obtain plasma and brain samples. Water was added to the obtained brain sample in 3 times the volume of the brain sample, and the resultant was then homogenized using an ultrasonic homogenizer, so as to obtain a brain homogenate. The concentration of the compound in the obtained plasma and brain homogenate was measured by LC-MS/MS, and the brain penetration properties of the present compound were evaluated from the brain/plasma concentration of the compound.

[3] = test system: H1975-EGFRinsSVD cell line; experiment: Antitumor effect confirmation test (in vivo) on subcutaneous transplantation models; parameters: species or system nude mouse (BALB/cAJcl-nu/nu); details: Examples 2, 11 and 12 orally at 25, 25 and 50 mg/kg/day, Days 1-14; Dunnett test P<0.001
Method: When the tumor volumes of nude mice having tumor engraftment became on the order of 100 to 200 mm^3, the mice were assigned to groups each involving 6 animals by random stratification such that the average tumor volume was equal among the groups.
The test compound used was the compounds of Examples 2, 11, and 12, and a 0.5% HPMC aqueous solution was used as a control. The compounds of Examples 2, 11 and 12 were orally administered at doses of 25 mg/kg/day, 25 mg/kg/day and 50 mg/kg/day, respectively.
Each test compound or the control was orally administered every day for 14 days (Days 1-14) from the day following the grouping.
To compare the transition of tumor growth over time by the administration of each test compound, a tumor volume (which is also referred to as “TV” below) was measured at a frequency of twice a week over time. […] A body weight change percentage is also referred to as “BWC” below.
BWCn(%)=((body weight on n^th day)−(body weight on grouping day)]/[(body weight on grouping day)×100

EGFR [D770_N771insNPG] = biological target: T1, EGFR [D770_N771insNPG] (Homo sapiens, UniProt P00533, INS772GNP); experiment: Phosphorylation activity inhibitory effect (in vitro), kinase assay at Carna Biosciences; type: biochemical; details: ATP near Km
T1 construct: fused on or other part: Probably an N-terminal GST tag (Carna product)
Method: The measurement of the in vitro inhibitory activity of a compound against wild-type and mutant EGFR was outsourced to Carna Biosciences, Inc. (Kinase Profiling Book, https://www.carnabio.com/japanese/product/search.cgi?mode=profiling).
Specifically, first, the compound of the present invention was diluted stepwise with dimethyl sulfoxide (DMSO). […] To the reaction solution, Termination Buffer was added, so as to terminate the kinase reaction. Finally, using LabChip™ EZ Reader II (PerkinElmer), an unphosphorylated substrate peptide (S) and a phosphorylated peptide (P) were separated and detected according to microchannel capillary electrophoresis.

T1 sequence (P00533 with tags, fused parts or gaps INS772GNP): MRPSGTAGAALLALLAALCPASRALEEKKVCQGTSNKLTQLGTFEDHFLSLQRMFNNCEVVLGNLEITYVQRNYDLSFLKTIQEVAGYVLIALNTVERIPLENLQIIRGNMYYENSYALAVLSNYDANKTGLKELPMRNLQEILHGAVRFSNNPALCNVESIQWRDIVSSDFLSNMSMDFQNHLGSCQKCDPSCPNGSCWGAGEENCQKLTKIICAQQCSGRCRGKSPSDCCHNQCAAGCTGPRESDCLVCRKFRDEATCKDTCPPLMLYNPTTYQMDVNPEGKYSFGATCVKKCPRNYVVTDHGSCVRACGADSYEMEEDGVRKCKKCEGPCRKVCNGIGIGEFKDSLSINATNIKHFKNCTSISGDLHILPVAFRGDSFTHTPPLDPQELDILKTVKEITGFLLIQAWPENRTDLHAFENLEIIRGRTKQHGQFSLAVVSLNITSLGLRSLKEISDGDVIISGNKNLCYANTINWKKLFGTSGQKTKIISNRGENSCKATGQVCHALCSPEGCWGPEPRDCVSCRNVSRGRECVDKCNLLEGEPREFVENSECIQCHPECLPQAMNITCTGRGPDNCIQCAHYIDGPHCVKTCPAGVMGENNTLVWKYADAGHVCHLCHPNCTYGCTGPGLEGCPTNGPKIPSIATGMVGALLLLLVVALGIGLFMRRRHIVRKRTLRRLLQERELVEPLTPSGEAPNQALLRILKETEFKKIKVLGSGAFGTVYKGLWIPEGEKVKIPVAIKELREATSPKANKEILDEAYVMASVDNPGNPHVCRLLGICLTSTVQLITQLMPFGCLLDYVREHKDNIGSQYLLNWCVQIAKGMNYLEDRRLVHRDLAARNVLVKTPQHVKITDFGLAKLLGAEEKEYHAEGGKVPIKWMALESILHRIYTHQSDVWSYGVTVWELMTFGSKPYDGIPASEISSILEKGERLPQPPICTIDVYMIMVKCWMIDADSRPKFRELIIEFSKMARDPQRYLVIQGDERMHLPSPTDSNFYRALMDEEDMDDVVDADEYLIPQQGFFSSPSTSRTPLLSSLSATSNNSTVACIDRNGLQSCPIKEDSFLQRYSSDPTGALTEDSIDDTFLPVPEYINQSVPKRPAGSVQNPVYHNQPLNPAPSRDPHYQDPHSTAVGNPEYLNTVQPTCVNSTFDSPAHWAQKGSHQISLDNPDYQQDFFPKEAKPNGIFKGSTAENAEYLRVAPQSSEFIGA

Row | Compound | Attenuation of oral absorbability relative to the compound of the present invention [1] | Attenuation of brain concentration relative to the compound of the present invention [2] | Antitumor effect: tumor volume (TV) on Day 15 compared with the control group [3] | IC50 (EGFR [D770_N771insNPG])
1 | C=CC(=O)N1C[C@H](n2nc(C(=O)Nc3ccc(CC(=O)N(C)C)c(C)c3C)c3c(N)ncnc32)C[C@@H]1C [Comparative Example 2, 1-((3R,5S)-1-acryloyl-5-methylpyrrolidin-3-yl)-4-amino-N-(4-(2-(dimethylamino)-2-oxoethyl)-2,3-dimethylphenyl)-1H-pyrazolo[3,4-d]pyrimidine-3-carboxamide] | more than 4 times | more than 80 times | – | –
2 | C=CC(=O)N1C[C@H](n2c(C#CC)c(C(=O)N[C@H](C)c3ccccc3)c3c(N)ncnc32)C[C@@H]1C [Example 2, 7-((3R,5S)-1-acryloyl-5-methylpyrrolidin-3-yl)-4-amino-N—((R)-1-phenylethyl)-6-(prop-1-yn-1-yl)-7H-pyrrolo[2,3-d]pyrimidine-5-carboxamide] | – | – | excellent antitumor effects | –
3 | C=CC(=O)N1C[C@H](n2c(C#CC3CC3)c(C(=O)N[C@H](C)c3ccccc3)c3c(N)ncnc32)C[C@@H]1C [Example 11, 7-((3R,5S)-1-acryloyl-5-methylpyrrolidin-3-yl)-4-amino-6-(cyclopropylethynyl)-N—((R)-1-phenylethyl)-7H-pyrrolo[2,3-d]pyrimidine-5-carboxamide] | – | – | excellent antitumor effects | 0.55 nM
4 | C=CC(=O)N1C[C@H](n2c(C#CC(C)(C)C)c(C(=O)N[C@H](C)c3ccccc3)c3c(N)ncnc32)C[C@@H]1C [Example 12, 7-((3R,5S)-1-acryloyl-5-methylpyrrolidin-3-yl)-4-amino-6-(3,3-dimethylbut-1-yn-1-yl)-N—((R)-1-phenylethyl)-7H-pyrrolo[2,3-d]pyrimidine-5-carboxamide] | – | – | excellent antitumor effects | –
